Reference: patent US20230066946A1, “1,5-DIPHENYLPYRAZOLYL-3-OXYALKYL ACIDS AND 1-PHENYL-5-THIENYLPYRAZOLYL-3-OXYALKYL ACIDS AND THE USE THEREOF FOR CONTROL OF UNWANTED PLANT GROWTH” (Bayer Aktiengesellschaft, priority 2019, published 2023)

What was measured:
ECHCG [1] = experiment: Pre-emergence herbicidal action against ECHCG; assay type: in vivo, Echinochloa crus-galli; details: scored visually after about 3 weeks vs untreated controls, 100% = plants have died, 0% = like control plants
Outline: (§1)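 Greenhouse pot test on sown, soil-covered weed seeds; spray of WP or EC formulation at 1280 or 320 g/ha onto covering soil. Effect rated visually after about 3 weeks (0% = like control, 100% = dead).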

SETVI [2] = experiment: Pre-emergence herbicidal action against SETVI; assay type: in vivo, Setaria viridis; details: 1280 g/ha, scored visually after about 3 weeks vs untreated controls
Outline: as §1

AMARE [3] = experiment: Pre-emergence herbicidal action against AMARE; assay type: in vivo, Amaranthus retroflexus; details: scored visually after about 3 weeks vs untreated controls; for Pre-emergence action at 320 g/ha against AMARE in %: 100% = plants have died, 0% = like control plants; for Pre-emergence action against AMARE in %: 1280 g/ha
Outline: as §1

POLCO [4] = experiment: Pre-emergence herbicidal action against POLCO; assay type: in vivo, Polygonum convolvulus; details: 320 g/ha, scored visually after about 3 weeks vs untreated controls
Description: (§2) Seeds of mono- and dicotyledonous weed plants are placed in plastic pots in sandy loam soil (doubly sown with one species each of mono- or dicotyledonous weed plants per pot) and covered with soil. The compounds of the invention, formulated in the form of wettable powders (WP) or as emulsion concentrates (EC), are then applied onto the surface of the covering soil as aqueous suspension or emulsion with addition of 0.5% additive at a water application rate equivalent to 600 litres per hectare. After the treatment, the pots are placed in a greenhouse and kept under good growth conditions for the trial plants. After about 3 weeks, the effect of the preparations is scored visually in comparison with untreated controls as percentages. For example, 100% activity=the plants have died, 0% activity=like control plants. [table] Tables 4.1-4.15 below show the effects of selected compounds of the general formula (I) according to Tables 1 to 3 on various harmful plants at an application rate corresponding to 1280 or 320 g/ha, which have been obtained by the aforementioned experimental method.

STEME [5] = experiment: Pre-emergence herbicidal action against STEME; assay type: in vivo, Stellaria media; details: scored visually after about 3 weeks vs untreated controls
Outline: as §1

VERPE [6] = experiment: Pre-emergence herbicidal action against VERPE; assay type: in vivo, Veronica persica; details: 320 g/ha, scored visually after about 3 weeks vs untreated controls
Outline: as §1

ECHCG [7] = experiment: Post-emergence herbicidal action against ECHCG; assay type: in vivo, Echinochloa crus-galli; details: 1280 g/ha, post-emergence at one-leaf stage, rated visually after about 3 weeks vs untreated controls
Outline: (§3)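 Each pot held twin-sown weeds in sandy loam, treated post-emergence 2 to 3 weeks after sowing at the one-leaf stage. Compound was given as a foliar spray at 1280 or 320 g/ha in 600 litres per hectare water with 0.5% additive. Visual scoring against untreated controls followed after about 3 weeks.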

AMARE [8] = experiment: Post-emergence herbicidal action against AMARE; assay type: in vivo, Amaranthus retroflexus; details: visual rating about 3 weeks after treatment
Outline: as §3

MATIN [9] = experiment: Post-emergence herbicidal action against MATIN; assay type: in vivo, Matricaria inodora; details: visual rating about 3 weeks after treatment
Outline: as §3

PHBPU = experiment: Post-emergence herbicidal action against PHBPU; assay type: in vivo, Pharbitis purpurea; details: 320 g/ha, visual rating about 3 weeks after treatment
Outline: as §3

POLCO [10] = experiment: Post-emergence herbicidal action against POLCO; assay type: in vivo, Polygonum convolvulus; details: 320 g/ha, visual rating about 3 weeks after treatment
Protocol: (§4) [table] Seeds of mono- and dicotyledonous weed plants are placed in plastic pots in sandy loam soil (twin sowing with one species each of mono- or dicotyledonous weed plants per pot), covered with soil and cultivated in a greenhouse under controlled growth conditions. 2 to 3 weeks after sowing, the test plants are treated at the one-leaf stage. The compounds of the invention, formulated in the form of wettable powders (WP) or as emulsion concentrates (EC), are applied to the green parts of the plants as aqueous suspension or emulsion with addition of 0.5% additive at a water application rate equivalent to 600 litres per hectare. After the test plants have been kept in the greenhouse under optimum growth conditions for about 3 weeks, the activity of the preparations is rated visually in comparison to untreated controls. For example, 100% activity=the plants have died, 0% activity=like control plants. Tables 5.1-5.16 below show the effects of selected compounds of the general formula (I) according to Tables 1 to 3 on various harmful plants at an application rate corresponding to 1280 or 320 g/ha, which have been obtained by the aforementioned experimental method.

STEME [11] = experiment: Post-emergence herbicidal action against STEME; assay type: in vivo, Stellaria media; details: visual rating about 3 weeks after treatment
Outline: as §3

VIOTR [12] = experiment: Post-emergence herbicidal action against VIOTR; assay type: in vivo, Viola tricolor; details: 320 g/ha, visual rating about 3 weeks after treatment
Outline: as §3

VERPE [13] = experiment: Post-emergence herbicidal action against VERPE; assay type: in vivo, Veronica persica; details: 320 g/ha, visual rating about 3 weeks after treatment
Outline: as §3

HORMU = experiment: Post-emergence herbicidal action against HORMU; assay type: in vivo, Hordeum murinum; details: 320 g/ha, visual rating about 3 weeks after treatment
Protocol: as §4

VIOTR [14] = experiment: Pre-emergence herbicidal action against VIOTR; assay type: in vivo, Viola tricolor; details: 1280 g/ha, scored visually after about 3 weeks vs untreated controls
Description: as §2

SETVI [15] = experiment: Post-emergence herbicidal action against SETVI; assay type: in vivo, Setaria viridis; details: 1280 g/ha, post-emergence at one-leaf stage, rated visually after about 3 weeks vs untreated controls
Outline: as §3

MATIN [16] = experiment: Pre-emergence herbicidal action against MATIN; assay type: in vivo, Matricaria inodora; details: 1280 g/ha, scored visually after about 3 weeks vs untreated controls
Description: as §2

ALOMY = experiment: Post-emergence herbicidal action against ALOMY; assay type: in vivo, Alopecurus myosuroides; details: 1280 g/ha, post-emergence at one-leaf stage, rated visually after about 3 weeks vs untreated controls
Protocol: as §4

Row | SMILES | Pre-emergence action at 1280 g/ha against ECHCG in % (ECHCG [1]) | Pre-emergence action against SETVI in % (SETVI [2]) | Pre-emergence action at 320 g/ha against AMARE in % (AMARE [3]) | Pre-emergence action against AMARE in % (AMARE [3]) | Pre-emergence action against POLCO in % (POLCO [4]) | Pre-emergence action against STEME in % (STEME [5]; 320 g/ha) | Pre-emergence action against STEME in % (STEME [5]; 1280 g/ha) | Post-emergence action against ECHCG in % (ECHCG [7]) | Post-emergence action against AMARE in % (AMARE [8]; 320 g/ha) | Post-emergence action against AMARE in % (AMARE [8]; 1280 g/ha) | Post-emergence action against MATIN in % (MATIN [9]; 1280 g/ha) | Post-emergence action against PHBPU in % (PHBPU) | Post-emergence action against POLCO in % (POLCO [10]) | Post-emergence action against STEME in % (STEME [11]; 320 g/ha) | Post-emergence action against STEME in % (STEME [11]; 1280 g/ha) | Post-emergence action against VIOTR in % (VIOTR [12]) | Post-emergence action against VERPE in % (VERPE [13]) | Post-emergence action against HORMU in % (HORMU) | Post-emergence action against MATIN in % (MATIN [9]; 320 g/ha) | Pre-emergence action against VIOTR in % (VIOTR [14]) | also measured
1 | COC(=O)COc1nn(-c2ccccc2F)c(-c2ccc(F)c(F)c2)c1Br [I-055] | 100% | 100% | 100% | 100% | 90% | 100% | 100% | 100% | 90% | 90% | 100% | 80% | 80% | 80% | 100% | 100% | 80% | 80% |  |  | Pre-emergence action against VERPE in % (VERPE [6]): 90%
2 | CCOC(=O)COc1nn(-c2ccccc2F)c(-c2ccccc2)c1[N+](=O)[O-] [I-075] |  |  |  |  | 80% | 80% |  |  |  |  |  | 90% | 80% |  |  | 100% | 80% | 80% | 80% |  | 
3 | COC(=O)[C@H](C)Oc1nn(-c2ccccc2)c(-c2ccc(F)cc2)c1C#N [I-141] | 100% | 100% | 90% | 100% |  | 80% | 90% | 100% | 90% | 90% | 90% |  |  | 90% | 90% | 90% |  | 80% | 80% |  | 
4 | C#Cc1c(OCC(=O)OC)nn(-c2ccccc2)c1-c1ccc(F)cc1 [I-066] |  |  |  | 100% |  |  |  |  |  |  | 80% | 90% |  |  |  | 80% |  |  | 80% | 90% | 
5 | C#Cc1c(OCC(=O)OC)nn(-c2ccccc2F)c1-c1ccccc1 [I-063] |  | 100% |  | 80% |  |  | 80% |  |  |  | 80% |  |  |  |  | 90% |  |  |  | 100% | Post-emergence action against SETVI in % (SETVI [15]): 80%
6 | O=C(O)COc1nn(-c2c(F)cccc2F)c(-c2ccc(F)c(F)c2)c1Br [I-137] | 100% | 100% | 90% | 100% | 100% | 90% | 100% | 100% | 80% | 90% | 90% | 90% | 90% | 90% | 100% | 80% | 90% | 80% | 80% |  | Pre-emergence action against VERPE in % (VERPE [6]): 90%; Post-emergence action against SETVI in % (SETVI [15]): 90%
7 | COC(=O)COc1nn(-c2cccc(Cl)c2)c(-c2cccc(F)c2)c1C#N [I-046] |  |  | 90% | 90% |  |  |  |  |  | 80% | 80% | 80% |  | 80% | 80% | 80% | 80% |  |  | 90% | Pre-emergence action against MATIN in % (MATIN [16]): 90%; Post-emergence action against ALOMY in % (ALOMY): 80%
